Assay results taken from ChEMBL document CHEMBL1138760, “Conformationally constrained analogues of diacylglycerol (DAG). 23. Hydrophobic ligand-protein interactions versus ligand-lipid interactions of DAG-lactones with protein kinase C (PK-C)” (J Med Chem, 2004).

Tests used:
[1] = biological target: Protein kinase C delta type (Homo sapiens, UniProt Q05655); experiment: Binding affinity for isolated C1b domain of protein kinase C-delta
[2] = Binding affinity for protein kinase C-alpha C1a and C1b domains

Chain of Protein kinase C delta type (Q05655 whole entry, the tested form may be a part): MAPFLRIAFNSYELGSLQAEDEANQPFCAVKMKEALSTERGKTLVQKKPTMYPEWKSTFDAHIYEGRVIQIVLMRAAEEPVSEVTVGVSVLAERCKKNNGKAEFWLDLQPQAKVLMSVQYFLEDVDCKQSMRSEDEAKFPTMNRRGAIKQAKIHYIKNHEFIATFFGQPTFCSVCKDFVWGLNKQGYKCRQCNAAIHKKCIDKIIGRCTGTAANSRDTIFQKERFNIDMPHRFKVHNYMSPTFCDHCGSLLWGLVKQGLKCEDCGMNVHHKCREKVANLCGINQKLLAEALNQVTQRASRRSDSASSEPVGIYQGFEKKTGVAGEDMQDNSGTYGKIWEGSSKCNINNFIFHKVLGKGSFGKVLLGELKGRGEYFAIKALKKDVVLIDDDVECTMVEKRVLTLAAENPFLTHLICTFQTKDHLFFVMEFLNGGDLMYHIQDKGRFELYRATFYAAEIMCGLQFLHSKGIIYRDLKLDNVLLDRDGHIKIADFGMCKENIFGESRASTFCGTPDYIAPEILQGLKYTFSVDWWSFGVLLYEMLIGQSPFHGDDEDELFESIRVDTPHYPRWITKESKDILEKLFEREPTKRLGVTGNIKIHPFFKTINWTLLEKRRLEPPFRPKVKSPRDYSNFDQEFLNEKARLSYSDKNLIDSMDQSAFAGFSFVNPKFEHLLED

Row | Compound | Ki [1] | Ki [2]
1 | CC(C)C(C/C=C1/C(=O)OC(CO)(COC(=O)C(C)(C)C)C1(C)C)C(C)C (stereo not drawn) | 3470 nM | 
2 | CC(C)C(C/C=C1\CC(CO)(COC(=O)C(C)(C)C)OC1=O)C(C)C (stereo not drawn) |  | 11.2 nM
3 | CC(C)CC(C/C=C1\CC(CO)(COC(=O)C(C)(C)C)OC1=O)CC(C)C (stereo not drawn) | 0.9 nM | 3.25 nM
4 | CC(C)C(C/C=C1/CC(CO)(COC(=O)C(C)(C)C)OC1=O)C(C)C (stereo not drawn) |  | 8.32 nM
5 | CC(C)C(C/C=C1\C(=O)OC(CO)(COC(=O)C(C)(C)C)C1(C)C)C(C)C (stereo not drawn) | 1460 nM | 
6 | CC(C)CC(C/C=C1/CC(CO)(COC(=O)C(C)(C)C)OC1=O)CC(C)C (stereo not drawn) | 1.16 nM | 2.9 nM
